In ChEMBL document CHEMBL1135112, “Shikonin derivatives: synthesis and inhibition of human telomerase” (Bioorg Med Chem Lett, 2002):
Activity calls are given as the source filed them. The rule behind the calls is not given here.

Assays:
A549 [1] = assay: The compound was tested in vitro for its cytotoxicity against human A-549 cancer cell line by MTT method at 1 uM concentration; Slight inhibition; type: functional, cell-based
HL-60 [2] = assay: The compound was tested in vitro for its cytotoxicity against human HL-60 cancer cell line by MTT method at 1 uM concentration; Slight inhibition; type: functional, cell-based
P388 [3] = assay: The compound was tested in vitro for its cytotoxicity against […] P-388 cancer cell line by MTT method at 1 uM concentration; Slight inhibition; type: functional, cell-based; details: Mus musculus
P388 [4] = assay: The compound was tested in vitro for its cytotoxicity against […] P-388 cancer cell line by MTT method at 1 uM concentration; No inhibition; type: functional, cell-based; details: Mus musculus
A549 [5] = assay: The compound was tested in vitro for its cytotoxicity against human A-549 cancer cell line by MTT method at 1 uM concentration; No inhibition; type: functional, cell-based
HL-60 [6] = assay: The compound was tested in vitro for its cytotoxicity against human HL-60 cancer cell line by MTT method at 1 uM concentration; Total inhibition; type: functional, cell-based
P388 [7] = assay: The compound was tested in vitro for its cytotoxicity against […] P-388 cancer cell line by MTT method at 1 uM concentration; Total inhibition; type: functional, cell-based
HL-60 [8] = assay: The compound was tested in vitro for its cytotoxicity against human HL-60 cancer cell line by MTT method at 1 uM concentration; No inhibition; type: functional, cell-based
A549 [9] = assay: Tested in vitro for inhibitory effect on the growth of human A-549 cancer cell line; type: functional, cell-based
Bel-7402 = assay: Tested in vitro for inhibitory effect on the growth of BEL -7402 cell line; type: functional, cell-based; details: Homo sapiens
K562 = assay: Tested in vitro for inhibitory effect on the growth of K-562 cell line; type: functional, cell-based; details: Homo sapiens
MCF7 = assay: Tested in vitro for inhibitory effect on the growth of MCF-7 cell line; type: functional, cell-based; details: Homo sapiens
SGC-7901 = assay: Tested in vitro for inhibitory effect on the growth of human gastric carcinoma SGC-7901 cell line; type: functional, cell-based
WI-38 = assay: Tested in vitro for inhibitory effect on the growth of WI-38 cell line; No cytotoxicity; type: functional, cell-based, Homo sapiens
A549 [10] = assay: The compound was tested in vitro for its cytotoxicity against human A-549 cancer cell line by MTT method at 1 uM concentration; Significant inhibition; type: functional, cell-based
HL-60 [11] = assay: The compound was tested in vitro for its cytotoxicity against human HL-60 cancer cell line by MTT method at 1 uM concentration; Significant inhibition; type: functional, cell-based
[12] = biological target: Telomerase reverse transcriptase (Homo sapiens, UniProt O14746); assay: Tested for 50% inhibition against Telomerase
Chain of Telomerase reverse transcriptase (O14746 whole entry): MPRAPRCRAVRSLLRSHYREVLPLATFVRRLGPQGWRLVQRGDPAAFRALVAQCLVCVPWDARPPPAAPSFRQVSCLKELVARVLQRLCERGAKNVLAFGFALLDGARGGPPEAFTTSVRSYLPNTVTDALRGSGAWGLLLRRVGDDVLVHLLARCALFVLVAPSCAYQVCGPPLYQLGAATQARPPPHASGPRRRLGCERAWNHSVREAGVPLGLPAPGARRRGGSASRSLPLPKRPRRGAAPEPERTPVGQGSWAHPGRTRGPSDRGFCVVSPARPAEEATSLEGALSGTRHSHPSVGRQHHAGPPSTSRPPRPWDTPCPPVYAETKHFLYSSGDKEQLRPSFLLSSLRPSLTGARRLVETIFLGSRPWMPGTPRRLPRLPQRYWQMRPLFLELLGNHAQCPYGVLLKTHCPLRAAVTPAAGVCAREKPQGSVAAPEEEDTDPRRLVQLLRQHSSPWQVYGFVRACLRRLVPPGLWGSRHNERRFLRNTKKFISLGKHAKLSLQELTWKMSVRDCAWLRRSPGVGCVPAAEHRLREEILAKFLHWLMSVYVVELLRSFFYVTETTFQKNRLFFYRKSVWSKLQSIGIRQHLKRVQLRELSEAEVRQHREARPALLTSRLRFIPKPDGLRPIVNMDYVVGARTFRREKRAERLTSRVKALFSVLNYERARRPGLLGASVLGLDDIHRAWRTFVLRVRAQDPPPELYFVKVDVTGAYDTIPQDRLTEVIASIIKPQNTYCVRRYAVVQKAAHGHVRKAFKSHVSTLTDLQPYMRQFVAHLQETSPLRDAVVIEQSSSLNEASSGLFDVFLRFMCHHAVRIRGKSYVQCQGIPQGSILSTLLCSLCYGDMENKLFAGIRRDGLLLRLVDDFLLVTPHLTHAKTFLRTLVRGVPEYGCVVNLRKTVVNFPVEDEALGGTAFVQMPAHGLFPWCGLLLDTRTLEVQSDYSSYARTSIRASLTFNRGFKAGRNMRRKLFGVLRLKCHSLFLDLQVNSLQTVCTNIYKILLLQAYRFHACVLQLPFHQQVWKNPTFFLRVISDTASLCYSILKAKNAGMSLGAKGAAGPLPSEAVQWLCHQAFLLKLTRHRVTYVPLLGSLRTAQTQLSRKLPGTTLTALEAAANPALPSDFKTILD

[13] = biological target: T1, DNA polymerase I, thermostable (Thermus aquaticus, UniProt P19821); assay: Tested for 50% inhibition against Taq DNA polymerase at the concentration of 10 uM; No inhibition
T1 sequence (P19821 whole entry): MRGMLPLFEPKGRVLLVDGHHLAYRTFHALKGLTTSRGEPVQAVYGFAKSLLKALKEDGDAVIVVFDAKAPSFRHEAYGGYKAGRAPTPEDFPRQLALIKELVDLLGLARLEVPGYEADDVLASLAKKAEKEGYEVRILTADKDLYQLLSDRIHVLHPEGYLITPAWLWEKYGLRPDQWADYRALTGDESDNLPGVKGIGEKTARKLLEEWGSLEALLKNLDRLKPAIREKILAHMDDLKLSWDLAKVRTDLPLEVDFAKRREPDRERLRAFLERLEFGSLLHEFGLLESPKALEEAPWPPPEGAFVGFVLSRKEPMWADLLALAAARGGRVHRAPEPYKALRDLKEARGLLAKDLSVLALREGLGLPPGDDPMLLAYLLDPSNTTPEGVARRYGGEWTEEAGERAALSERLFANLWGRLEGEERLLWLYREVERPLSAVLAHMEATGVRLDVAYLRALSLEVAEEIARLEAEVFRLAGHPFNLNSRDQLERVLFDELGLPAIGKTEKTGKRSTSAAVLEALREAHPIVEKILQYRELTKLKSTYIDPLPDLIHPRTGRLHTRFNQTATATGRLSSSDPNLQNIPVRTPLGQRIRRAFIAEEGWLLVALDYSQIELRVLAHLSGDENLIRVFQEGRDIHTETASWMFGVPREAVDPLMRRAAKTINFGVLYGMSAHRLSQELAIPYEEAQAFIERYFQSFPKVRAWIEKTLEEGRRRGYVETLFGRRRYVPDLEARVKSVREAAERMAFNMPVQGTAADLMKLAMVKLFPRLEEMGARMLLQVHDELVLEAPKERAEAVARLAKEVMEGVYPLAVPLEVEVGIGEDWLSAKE

[14] = biological target: T1, DNA polymerase I, thermostable; assay: Tested for 50% inhibition against Taq DNA polymerase at the concentration of 20 uM; No inhibition
[15] = biological target: T1, DNA polymerase I, thermostable; assay: Tested for 50% inhibition against Taq DNA polymerase at the concentration of 50 uM; No inhibition

Compound: CC(C)=CC[C@H](O)C1=CC(=O)c2c(O)ccc(O)c2C1=O
- Activity (A549 [1]): Slight inhibition
- Activity (HL-60 [2]): Slight inhibition
- Activity (P388 [3]): Slight inhibition

Compound: CC(C)=CCC(OC(=O)Cc1c[nH]c2ccccc12)C1=CC(=O)c2c(O)ccc(O)c2C1=O (centres undefined)
- Activity (HL-60 [2]): Slight inhibition
- Activity (P388 [4]): inactive
- Activity (A549 [5]): inactive

Compound: CC1(C)CC[C@H](C2=CC(=O)c3c(O)ccc(O)c3C2=O)O1
- Activity (HL-60 [6]): Total inhibition
- Activity (P388 [7]): Total inhibition
- Activity (A549 [5]): inactive

Compound: CC(C)=CCC(OC(=O)c1ccccc1)C1=CC(=O)c2c(O)ccc(O)c2C1=O (centres undefined)
- Activity (HL-60 [8]): inactive
- Activity (P388 [4]): inactive
- Activity (A549 [5]): inactive

Compound: CCCCCCCCCCCC(=O)OC(CC=C(C)C)C1=CC(=O)c2c(O)ccc(O)c2C1=O (centres undefined)
- Activity (A549 [1]): Slight inhibition
- Activity (HL-60 [2]): Slight inhibition
- Activity (P388 [4]): inactive

Compound: CC(C)=CC[C@@H](O)C1=CC(=O)c2c(O)ccc(O)c2C1=O
- Activity (A549 [1]): Slight inhibition
- Activity (HL-60 [2]): Slight inhibition
- Activity (P388 [3]): Slight inhibition

Compound: CC(C)=CCC(OC(=O)c1ccc2ccccc2c1)C1=CC(=O)c2c(O)ccc(O)c2C1=O (centres undefined)
- IC50 (A549 [9]): 390 µM
- IC50 (Bel-7402): 67 µM
- Activity (HL-60 [2]): Slight inhibition
- IC50 (K562): 31 µM
- IC50 (MCF7): 93 µM
- Activity (P388 [4]): inactive
- IC50 (SGC-7901): 49 µM
- IC50 (WI-38): No cytotoxicity
- Activity (A549 [5]): inactive

Compound: CC(C)=CCC(OC(=O)COCc1ccccc1)C1=CC(=O)c2c(O)ccc(O)c2C1=O (centres undefined)
- Activity (P388 [4]): inactive
- Activity (A549 [5]): inactive

Compound: CC(=O)O[C@H](CC=C(C)C)C1=CC(=O)c2c(O)ccc(O)c2C1=O [ACETYLSHIKONIN]
- Activity (A549 [10]): Significant inhibition
- IC50 (A549 [9]): 39 µM
- IC50 (Bel-7402): 0.068 µM
- Activity (HL-60 [11]): Significant inhibition
- IC50 (K562): 29 µM
- IC50 (MCF7): 31 µM
- Activity (P388 [3]): Significant inhibition
- IC50 (SGC-7901): 0.29 µM
- IC50 [12]: 37.3 µM
- IC50 [13]: Not Active
- IC50 [14]: Not Active
- IC50 [15]: Not Active
- IC50 (WI-38): No cytotoxicity

Compound: CCCC(=O)OC(CC=C(C)C)C1=CC(=O)c2c(O)ccc(O)c2C1=O (centres undefined)
- Activity (HL-60 [2]): Slight inhibition
- Activity (P388 [4]): inactive
- Activity (A549 [5]): inactive

Compound: CC(C)=CCC(OC(=O)c1cccnc1)C1=CC(=O)c2c(O)ccc(O)c2C1=O (centres undefined)
- Activity (HL-60 [2]): Slight inhibition
- Activity (P388 [4]): inactive
- Activity (A549 [5]): inactive

Compound: CC(C)=CCC(OC(=O)COc1ccc2ccccc2c1)C1=CC(=O)c2c(O)ccc(O)c2C1=O (centres undefined)
- Activity (HL-60 [2]): Slight inhibition
- Activity (P388 [4]): inactive
- Activity (A549 [5]): inactive

Compound: CC1(C)CC[C@@H](C2=CC(=O)c3c(O)ccc(O)c3C2=O)O1
- Activity (HL-60 [6]): Total inhibition
- Activity (P388 [7]): Total inhibition
- Activity (A549 [5]): inactive

Compound: CC(C)=CCC(OC(=O)c1cccc2ccccc12)C1=CC(=O)c2c(O)ccc(O)c2C1=O (centres undefined)
- Activity (HL-60 [2]): Slight inhibition
- Activity (P388 [4]): inactive
- Activity (A549 [5]): inactive

Compound: CC(C)=CCC(O)C1=CC(=O)c2c(O)ccc(O)c2C1=O (centres undefined)
- Activity (A549 [1]): Slight inhibition
- Activity (HL-60 [2]): Slight inhibition
- Activity (P388 [3]): Slight inhibition

Compound: CC(C)=CCC(OC(=O)CCCCC(C)C)C1=CC(=O)c2c(O)ccc(O)c2C1=O (centres undefined)
- Activity (A549 [10]): Significant inhibition
- IC50 (A549 [9]): 0.016 µM
- IC50 (Bel-7402): 0.00017 µM
- Activity (HL-60 [2]): Significant inhibition
- IC50 (K562): 18 µM
- IC50 (MCF7): 250 µM
- Activity (P388 [4]): inactive
- IC50 (SGC-7901): 0.001 µM
- IC50 (WI-38): No cytotoxicity
